Measured values as given in PMC8485325, “Penetrating the Blood-Brain Barrier with New Peptide–Porphyrin Conjugates Having anti-HIV Activity” (Bioconjugate Chemistry, 2021).
Like-named read-outs stand apart in the source and are kept apart here. Ends that are not written are not given here.

What was measured:
bEnd.3 cell monolayers [1] = system: bEnd.3 cell monolayers
Experimental: (§1) Figure 4 PPCs translocation across a bEnd.3 in vitro BBB model. (A) bEnd.3 in vitro BBB model transwell system. The insert, or apex, corresponds to the blood side, while the base (bottom chamber) corresponds to the brain side. (B) After formation of a monolayer, 10 μM of each conjugate was added to the apical side of the tissue culture inserts. After incubation for 24 h, samples from the basolateral side were collected, and the percentage of translocation of each conjugate (black) was calculated. FD4 permeability (gray) was measured to determine monolayer integrity post-PPCs translocation.
After 24 h incubation with conjugates, an in vitro integrity assay was performed.[19] Briefly, cells were washed twice with PBS and once with DMEM medium without phenol red. Then, previously diluted 4 kDa fluorescein isothiocyanate-dextran (FD4) (Sigma-Aldrich, Spain) in DMEM without phenol red to an absorbance of 0.1 was added to the apical side and incubated for 2 h. Samples were collected from the apical and basolateral side, and fluorescence intensity was measured with λext = 493 nm and λem = 520 nm, using a Varioskan Lux plate reader. The integrity of the barrier was determined as follows: [drawing 2] 2 where Fi is the recovered fluorescence intensity, Fcells is the recovered fluorescence intensity from cells without FD4 incubation, FFD4 is the fluorescence intensity of total FD4 initially added to the transwell apical side, and FMedium is the fluorescence intensity of DMEM medium without phenol red.

HIV-1NL4-3 = experiment: In vitro inhibition of HIV-1NL4-3 infection of TZM-bl cells (luciferase reporter); assay type: cell-based
Experimental: Viral supernatants harvested from pNL4-3-transfected HEK293T cells were titered through the Reed-Muench method[56] based on HIV-1NL4–3 infectivity against TZM-bl cell cultures. TZM-bl cells were seeded at 2 × 10^4 cells/well in tissue culture-treated 96-well microplates from Corning (Corning, NY, USA), and incubated for 24 h. Cells were then incubated with 2-fold serial dilutions of viral supernatants for 3 h, after which the supernatant was replaced with fresh complete medium. After 45 h, TZM-bl cell infection was quantified through luciferase reporter-gene expression levels, under the control of an HIV-1 TAT-dependent LTR promoter[57] using the Luc-Screen luciferase chemiluminescence detection system. Luminescence was measured in an Infinite M200 microplate reader from Tecan (Männedorf, Switzerland). […] Titration was performed with at least four replicates to allow accurate estimation of TCID50 in viral supernatants.
The inhibitory activity of conjugates on HIV-1NL4–3 entry into TZM-bl cells was evaluated as previously described.[58] TZM-bl cells were seeded at 2 × 10^4 cells/well in tissue culture-treated 96-well microplates and incubated for 24 h. HIV-1NL4–3 viral supernatants (100 or 10 TCID50/well) were then incubated for 1 h with 2-fold serial dilutions of either nonconjugated peptide and porphyrins or conjugates, after which the infection mixture was added to TZM-bl cells. Untreated cells (in the absence of peptide–porphyrin conjugate) were used as control. Virions were incubated with cells for 3 h, after which cells were washed to remove unbound virions and new medium was added. After 45 h, infection was quantified by the Luc-Screen chemiluminescence assay. Measurements were performed in an Infinite M200 microplate reader. […] At least three independent experiments were performed for each assay.

[2] = Cell viability assay (CellTiter-Blue); assay type: cell-based, murine; conditions: for CC50 at 24 h: mouse
Experimental: (§2) bEnd.3 cells were plated in fibronectin precoated 96-well flat-bottom clear black polystyrene plate (Corning, New York, USA) as previously described. Cells were then cultured in complete medium at 37 °C in a 5% CO2 atmosphere, with medium replaced every 2 days. […] Viability was evaluated by the CellTiter-Blue assay (Promega, Wisconsin, USA), based on resazurin reduction into highly fluorescent resorufin by metabolically active cells. By distinguishing metabolic from nonmetabolic cells, cytotoxicity can be indirectly determined. After incubation, cells were washed with PBS, pH 7.4, and 15 μL of CellTiterBlue reagent in 100 μL of complete medium was added to the cells and incubated for 1.5 h at 37 °C in 5% CO2. Fluorescence was measured at 590 nm, with excitation at 560 nm, using an Infinite F200 plate reader (Tecan, Switzerland). Complete medium and medium containing 0.25% Triton X-100 were used as positive and negative controls (100% and 0% viability), respectively. Cell viability (%) was determined using the following equation: [drawing 5] 5 where […] is the fluorescence emission of conjugate-treated cells, Fnontreated is the fluorescence emission of the control nontreated cells, and Fblank is the fluorescent emission of CellTiter reagent in complete medium without cells.

bEnd.3 cell monolayers [3] = experiment: In vitro BBB translocation assay (bEnd.3 transwell model)
From the text: Assessment of PPC efficacy in BBB translocation was done in a transwell setup (Figure 4A) using bEnd.3 cell monolayers.[44] The bEnd.3 in vitro BBB model consists of a monolayer of cells expressing a range of essential BBB transporters, also bearing the low permeability characteristic of the BBB, suitable for this study.[44]−[46]
as §1
An in vitro BBB model consisting of endothelial cells growing on the apical side of a porous membrane was used.[46] bEnd.3 cells (ATTCC-CRL2299) were cultured as a monolayer on T-flasks in DMEM supplemented with 10% fetal bovine serum (FBS), 1% penicillin/streptomycin. Cells were grown in a humidified atmosphere of 5% CO2 at 37 °C (MCO-18AIC (UV), Sanyo, Japan) with the medium changed every other day. Cells were allowed to grow until confluence in a culture T-flask, and then carefully harvested with trypsin-EDTA and seeded (3500 cells/well) onto fibronectin-coated tissue culture 24-well inserts (transparent polyester membrane with 1.0 μm pores) (BD Falcon, USA). The medium was changed every other day for 10 days, after which cells were washed twice with 1× PBS and once with DMEM medium without phenol red. Next, conjugates diluted in DMEM without phenol red to a final concentration of 10 μM were added to the apical side of the in vitro BBB model (Figure 4A). Experiments were performed on different days using independently grown cell cultures.
The translocation of conjugates was determined by fluorescence intensity (λexc = 380 nm and λem = 625 nm for MP conjugates, and λexc = 380 nm and λem = 675 nm for PP conjugates). P3-CF and P5-CF, peptides labeled with 5(6)-Carboxyfluorescein (CF), were used as positive translocation controls (λexc = 492 nm and λem = 517 nm). After 24 h incubation, samples from the apical and basolateral side were collected and analyzed. Fluorescence was measured using a Varioskan Lux plate reader (Thermo Scientific, MA, USA). The percentage (%) of translocation was calculated using the following equation: [drawing 1] 1 where Fi is the recovered fluorescence intensity, Fcells is the recovered fluorescence intensity from cells without the conjugate, and Fconjugate is the fluorescence intensity of total peptide initially added to the transwell apical side.

human erythrocytes = experiment: Hemolysis assay; assay type: cell-based
Experimental: Plates were incubated for 1 h at 37 °C with 100 rpm stirring, then centrifuged for 5 min at 4000 rpm, 4 °C, and supernatants were transferred to a 96-well flat-bottom polystyrene plate (Corning). Hemolysis was assessed by hemoglobin (Hb) release, measured by absorbance at 415 nm in a Varioskan LUXTM microplate reader (Thermo Fisher Scientific, Inc.). As porphyrin and Hb spectra are partially overlapping, to exclude porphyrin interference in Hb quantification a blank reading of each PPC (no hRBCs, TN buffer +1% DMSO) was subtracted from each measurement. TN buffer (+1% DMSO, no conjugate) and hRBCs with 1% Triton X-100 were used as negative and positive controls, respectively. Hemolysis (%) was determined using the following equation: [drawing 6] 6 where Abstreated is the absorbance of hRBC treated with the conjugates, Absconjugate is the absorbance from each conjugate concentration without hRBCs, AbsTriton is the absorbance of Triton X-100 treated hRBCs, and Absbuffer is the absorbance of TN buffer alone. HC50 values were determined by GraphPad Prism 8 software using a log(inhibitor) vs normalized response (variable slope). Experiments were performed using 3 different blood donors.

bEnd.3 cells = experiment: Cell viability assay (CellTiter-Blue); assay type: cell-based, murine
Experimental: as §2

TZM-bl cells = assay type: cell-based
Experimental: TZM-bl Cell Viability Studies
The cytotoxic effects of each PPC on TZM-bl cell cultures were assessed to ensure that HIV inhibition was a result of the compounds effect on the virus and not on the host cells used in the assay. A resazurin reduction fluorometric assay was performed. Resazurin, the active compound in alamarBlue®, is a blue dye that can be reduced to a pink fluorescent intermediate, resorufin, as a result of cell metabolic activity.6 TZM-bl cells were seeded at 2x10^4 cells/well in tissue culture-treated 96-well microplates and incubated for 24 h. Cells were then incubated with serial dilutions (2-fold) of single peptide and porphyrins, or PPC, for 3 h, after which the mixture was replaced with fresh complete medium. Untreated cells (in the absence of peptide-porphyrin combinations) were used as a control. After 42 h, media was replaced with alamarBlue® reagent and incubated for an additional 3 h. Resazurin reduction was quantified by resorufin fluorescent emission intensity, measured in an Infinite M200 microplate reader. Fluorescence emission intensity was collected at 590 nm, using a fixed λ exc of 560 nm. Excitation and emission slits were 9 and 20 nm, respectively. Cell viability was calculated through the following formalism: […]
where I EI corresponds to the resorufin fluorescence emission intensity in the presence of EIs or combination, I control to the fluorescence emission intensity in the absence of EIs and I background to the background fluorescence emission from the non-reduced […]
P5, P4-MP, MP-L-P3 and P4-L-M - are presented here.
TZM-bl cell viability on the concentration range tested.
(1 picture or pasted object on this page, not shown here)
Figure S7. PPCs cytotoxic effects against TZM-bl cells. A resazurin reduction fluorometric assay, dependent on the cell metabolic activity, was used. Cell viability, normalized to the control in the absence of PPC, was measured against three concentrations of each individual PPC: MP-P3 (black), MP-P5 (white), P4-MP (red), MP-L-P3 (blue) and P4-L-MP (green).

Molecule: O=C(O)CN(CCOCCOCCN(CC(=O)O)CC(=O)O)CC(=O)O [EGTA, reference compound]
- % Base (RFI), FD4 Permeability (monolayer integrity post-translocation) (bEnd.3 cell monolayers [1]): 26.8%

Molecule: CCC1=C(C)c2cc3[nH]c(cc4nc(cc5[nH]c(cc1n2)c(C)c5CCC(=O)O)C(CCC(=O)O)=C4C)c(C)c3CC [MP, mesoporphyrin IX, reference compound]
- IC50 (HIV-1NL4-3; Human immunodeficiency virus 1, 100 TCDI50 per well, TZM-bl cells, no-light, read-out: IC50 HIV inhibition, 100 TCDI50): > 50 µM
- CC50 at 24 h ([2]; bEnd.3 cells, 24 h, 6.25–50 μM range): > 50 µM
- BBB translocation (in words) (bEnd.3 cell monolayers [3]; bEnd.3 monolayer in vitro model): translocated the monolayer
- HC50: 50% lytic concentration for human erythrocytes (human erythrocytes; 1 h at 37 °C, 0.1–50 μM range): >50 µM

Molecule: C=CC1=C(C)c2cc3[nH]c(cc4nc(cc5[nH]c(cc1n2)c(C)c5CCC(=O)O)C(CCC(=O)O)=C4C)c(C)c3C=C [PP, protoporphyrin IX, reference compound]
- IC50 (HIV-1NL4-3; Human immunodeficiency virus 1, TZM-bl, read-out: IC50 HIV inhibition, 100 TCDI50): > 50 µM
- % Base (RFI), FD4 Permeability (monolayer integrity post-translocation) (bEnd.3 cell monolayers [1]; mouse, 2 h, 10 μM): 8.7%
- CC50 at 24 h [2]: > 50 µM
- BBB translocation (in words) (bEnd.3 cell monolayers [3]): translocated the monolayer
- % Base (RFI), Translocation (bEnd.3 cell monolayers [3]; mouse, 24 h, 10 μM): 38.3%
- HC50: 50% lytic concentration for human erythrocytes (human erythrocytes; human, 1 h, pH 7.4): >50 µM

Molecule: H-AGILKRW-NH2 [P3, AGILKRW-amide, reference compound]
- CC50 ([2]; 24 h, 6.25–50 μM range): > 50 µM
- HC50: 50% lytic concentration for human erythrocytes (human erythrocytes; 1 h at 37 °C, 0.1–50 μM range): >50 µM

Molecule: H-SGTQEEY-NH2 [P5, SGTQEEY-amide, reference compound]
- CC50 [2]: > 50 µM
- HC50: 50% lytic concentration for human erythrocytes (human erythrocytes; red cells of human, 1 h): >50 µM

Molecule: H-VQQLTKRFSL-NH2 [P1, reference compound]
- CC50 ([2]; 24 h, 6.25–50 μM range): > 50 µM
- HC50: 50% lytic concentration for human erythrocytes (human erythrocytes; 1 h at 37 °C, 0.1–50 μM range): >50 µM

Molecule: MP-P3: mesoporphyrin IX coupled to the N-terminal amino group of peptide P3 (AGILKRW-amide) ({mesoporphyrin IX}-AGILKRW-NH2)
- IC50 (HIV-1NL4-3; 10 TCDI50 per well (approximate physiological conditions of HIV brain infection), TZM-bl cells, read-out: IC50 HIV inhibition, 10 TCDI50): 1.38 ± 1.1 µM
- IC50 (HIV-1NL4-3; 100 TCDI50 per well, TZM-bl cells, no-light, read-out: IC50 HIV inhibition, 100 TCDI50): 16.1 ± 1.3 µM
- % Base (RFI), FD4 Permeability (monolayer integrity post-translocation) (bEnd.3 cell monolayers [1]): 10.2%
- CC50 (bEnd.3 cells): 48.2 µM
- TZM-bl cell viability (in words) (TZM-bl cells): did not alter significantly

Molecule: P4-PP: protoporphyrin IX coupled to the Lys side-chain NH2 group of peptide P4 (AGILKRWK-amide) (AGILKRWK-NH2; also: protoporphyrin IX on a Lys side chain, Lys not given here)
- % Base (RFI), FD4 Permeability (monolayer integrity post-translocation) (bEnd.3 cell monolayers [1]): 9.9%
- CC50 (bEnd.3 cells): > 50 µM

Molecule: P6-MP: mesoporphyrin IX coupled to the C-terminal Lys side chain of peptide P6 (SGTQEEYK-amide) (SGTQEEYK(mesoporphyrin IX)-NH2)
- CC50 (bEnd.3 cells; read-out: CC50: 50% cytotoxic concentration toward bEnd.3 cells, 24 h, 6.25–50 μM range): > 50 µM
- HC50: 50% lytic concentration for human erythrocytes (human erythrocytes; 1 h at 37 °C, 0.1–50 μM range): >50 µM

Molecule: PP-P3: protoporphyrin IX coupled to the N-terminal NH2 group of peptide P3 (AGILKRW-amide) ({protoporphyrin IX}-AGILKRW-NH2)
- % Base (RFI), FD4 Permeability (monolayer integrity post-translocation) (bEnd.3 cell monolayers [1]): 7.2%
- CC50 (bEnd.3 cells): > 50 µM
